This assay has as its system MDA-MB-468 breast. Description: DTP human tumour cell line panel, 48 h.

Several values for one entry are separate records, joined by “and”; a condition that tells them apart may be missing. Equal entries are not always repeated.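 The compound was tested at five concentrations on cells cultured in 96-well plates, with a 48-hour exposure period. At the GI50, growth is halved. TGI is the concentration that stops growth completely.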

For `COc1ccc2c(O)c(/C=C3\N=Nc4ncccc43)oc2c1C[C@H]1CCNC[C@H]1F`, the GI50 is 246 nM and the TGI came out at 1950 nM.
In the same order, the values of `C=CC[N+]1(CCO)CCN=C1CCCCCCCCCCCCC` (stereo unspecified) are 1180 nM and 2550 nM.
Regarding `COc1ccc(C2=CC(c3ccc(Oc4ccnc5cc(Cl)ccc45)c(OC)c3)c3c(nc(OC)[nH]c3=O)N2)cc1` (stereo unspecified), the GI50 was 5220 nM and the TGI is over 100000 nM.
For the molecule `O=C(Nc1ccc(Cl)cc1F)c1cc(F)ccc1O`, the GI50 is 1270 nM and the TGI was determined as 5180 nM.
Take `CN(C)CCN1C(=O)c2cccc3c(N)ccc(c23)C1=O`: the GI50 is 8400 nM and the TGI was over 25000 nM.
Take `OC(COc1cccc2ccccc12)CN1CCN(c2ccc(Cl)cc2)CC1` (stereo unspecified): the GI50 was 36400 nM and the TGI was over 100000 nM.
In the case of `FC(F)(F)c1[nH]ncc1-c1nc2c(N3CCCCC3)cc3[nH]ncc3c2c2c1CCCC2`, the GI50 is 691 nM and the TGI was found to be 2450 nM.
Take `CCN(CC)S(=O)(=O)c1ccc(-c2nc(C(Cl)Cl)nc3cc(C)nn23)cc1`: the GI50 is 1720 nM and the TGI turned out to be 4440 nM.
For `Cc1cc(Nc2cc(CN3CCOCC3)c3nc(C)c(Cc4ccc(Cl)cc4F)n3n2)n[nH]1` the same measures were 441 nM and 2950 nM.
In the same order, the values of `COc1ccc2[nH]c(-c3ccccc3)c(C=C(C#N)C#N)c2c1` are 2130 nM and 49900 nM.
With `COc1cc(-c2nc3ccccc3[nH]2)ccc1OCC(=O)N=Nc1c(O)[nH]c2ccc(Cl)cc12`, the GI50 is 1740 nM and the TGI is 3450 nM.
For `COc1cc(-c2cc(-c3nc4cc(Cl)c(Cl)cc4[nH]3)[nH]n2)cc(OC)c1OC` the same measures were 3490 nM and 16200 nM.
For `C=CC(=O)NCCOc1cccc(Nc2cc(NCCCNC(=O)C3CCC3)c(Br)cn2)c1` the same measures were 1420 nM and 5080 nM.
As for `Cc1cc(C(=O)N[C@@H](CCC(=O)O)C(=O)O)sc1CC[C@@H]1CNc2nc(N)[nH]c(=O)c2C1`, the GI50 was 33.3 nM.
`COc1ccc(-c2ccc3ncc4c(c3c2)n(-c2ccc(N3CCNCC3)c(C(F)(F)F)c2)c(=O)n4C)cn1`: the GI50 was < 10 nM and 3.18 nM; the TGI was 19.4 nM and 19.9 nM.
Regarding `N=C(N)c1ccc(-c2ccc(-c3cncc4ccccc34)s2)cc1F`, the GI50 is 1280 nM and the TGI amounted to 2950 nM.
For the molecule `O=[N+]([O-])c1cccc(/C=C/c2ccccn2)c1`, the GI50 was 2250 nM and the TGI is over 100000 nM.
For `COc1cc(/C=C2\CCCC3C2=Nc2ccccc2NC3c2cc(OC)c(OC)c(OC)c2)cc(OC)c1OC` (stereo unspecified) the same measures were 1710 nM and 6100 nM.
Regarding `O=C(CCc1ccco1)NC1CCN(CC2(c3ccc(Cl)cc3)CCC2)CC1`, the GI50 was 5280 nM and the TGI worked out at 18900 nM.
For `CCN1CCC2(CC1)NC(=O)c1c(c3ccc(Cl)c(Cl)c3n1C)C2C#N` (stereo unspecified) the same measures were 1350 nM and 2910 nM.
For `COc1ccc(Cn2cc3c(c2-c2cc(OC)c(OC)c(OC)c2)CCCc2cnoc2-3)cc1N`, the GI50 is 540 nM and the TGI was over 100000 nM.
Turning to `COc1ccc2c(c1)C(=O)c1c-2c(OCCN(C)C)nc2cc(OC)ccc12`, the GI50 was 1870 nM and the TGI was determined as 8570 nM.
Consider `CN1C(=O)N(C)C2C1NN=c1s/c(=C\c3c[nH]c4ccccc34)c(=O)n12` (stereo unspecified), for which the GI50 was 35.9 nM and the TGI was over 86800 nM.
For `O=C1CCC(N2C(=O)c3ccc(NS(=O)(=O)c4ccccc4OC(F)(F)F)cc3C2=O)C(=O)N1` (stereo unspecified) the same measures were 53.6 nM and 2130 nM.
As for `COc1cc(OC)cc(-c2ccc(-c3ccc(C(=N)N)s3)s2)c1`, the GI50 was 304 nM and the TGI was found to be 1160 nM.
In the same order, the values of `Fc1c[c-]c(-c2ccccn2)c(F)c1.[CH3-].[Pt+2].c1ccc([PH+](c2ccccc2)c2ccccn2)cc1` are 1400 nM and 4270 nM.
